Legend:
JAK1 = molecular target: T1, JAK1 (Homo sapiens, UniProt P23458); assay: Biochemical JAK1 kinase assay (LanthaScreen)
T1 construct: GST; purchased Life Technologies
Outline: (§1)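 Values are pKi, calculated by Cheng-Prusoff from IC50 obtained by robust 4-parameter fitting of percent inhibition. The kinase reaction used GFP-STAT1 peptide in HEPES pH 7.5 buffer with MgCl2, EGTA and Brij-35, ATP-initiated after compound pre-incubation, 1 h at ambient temperature.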

JAK2 = molecular target: T2, JAK2 (Homo sapiens, UniProt O60674); assay: Biochemical JAK2 kinase assay (LanthaScreen)
T2 construct: GST; purchased Life Technologies
T2 sequence (O60674 whole entry): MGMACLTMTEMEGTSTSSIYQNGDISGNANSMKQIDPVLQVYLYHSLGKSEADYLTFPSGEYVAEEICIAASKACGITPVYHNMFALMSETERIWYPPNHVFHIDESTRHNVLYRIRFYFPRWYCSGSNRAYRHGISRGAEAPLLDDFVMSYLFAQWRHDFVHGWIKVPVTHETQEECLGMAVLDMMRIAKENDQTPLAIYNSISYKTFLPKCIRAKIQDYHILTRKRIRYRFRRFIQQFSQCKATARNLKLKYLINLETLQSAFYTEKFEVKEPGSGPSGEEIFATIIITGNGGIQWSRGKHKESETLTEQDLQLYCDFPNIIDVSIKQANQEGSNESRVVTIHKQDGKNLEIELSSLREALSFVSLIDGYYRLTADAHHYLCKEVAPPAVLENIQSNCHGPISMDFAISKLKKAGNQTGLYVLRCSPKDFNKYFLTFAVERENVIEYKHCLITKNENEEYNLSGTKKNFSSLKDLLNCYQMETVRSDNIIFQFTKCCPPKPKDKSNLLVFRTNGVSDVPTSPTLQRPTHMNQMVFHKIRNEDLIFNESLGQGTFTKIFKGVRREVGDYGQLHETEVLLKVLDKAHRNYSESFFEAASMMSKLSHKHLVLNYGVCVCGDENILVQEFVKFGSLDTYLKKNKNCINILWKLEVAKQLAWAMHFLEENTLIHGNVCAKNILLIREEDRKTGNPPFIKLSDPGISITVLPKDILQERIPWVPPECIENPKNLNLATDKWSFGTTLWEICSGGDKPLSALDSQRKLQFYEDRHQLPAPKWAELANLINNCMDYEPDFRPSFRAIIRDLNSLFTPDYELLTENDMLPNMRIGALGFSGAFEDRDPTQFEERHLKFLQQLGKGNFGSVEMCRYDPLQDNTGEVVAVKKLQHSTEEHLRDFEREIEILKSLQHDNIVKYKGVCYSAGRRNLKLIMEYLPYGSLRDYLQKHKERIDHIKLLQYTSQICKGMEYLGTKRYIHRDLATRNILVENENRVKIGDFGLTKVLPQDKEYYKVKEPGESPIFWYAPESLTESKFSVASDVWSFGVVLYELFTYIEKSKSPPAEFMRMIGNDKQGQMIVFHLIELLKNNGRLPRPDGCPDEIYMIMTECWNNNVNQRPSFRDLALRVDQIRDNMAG
Outline: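 pKi values derive from pIC50 via Cheng-Prusoff, with IC50 from a 4-parameter fit of percent-inhibition TR-FRET data using Tb-anti-pSTAT1 (pTyr701) detection. Compound, GST-JAK2 and GFP-STAT1 substrate were pre-incubated 1 h, then ATP started a 1 h ambient reaction (HEPES pH 7.5, 10 mM MgCl2, 1% DMSO).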

Tyk2 = molecular target: T3, Tyk2 (Homo sapiens, UniProt P29597); assay: Biochemical Tyk2 kinase assay (LanthaScreen)
T3 construct: GST; purchased Life Technologies
T3 sequence (P29597 whole entry): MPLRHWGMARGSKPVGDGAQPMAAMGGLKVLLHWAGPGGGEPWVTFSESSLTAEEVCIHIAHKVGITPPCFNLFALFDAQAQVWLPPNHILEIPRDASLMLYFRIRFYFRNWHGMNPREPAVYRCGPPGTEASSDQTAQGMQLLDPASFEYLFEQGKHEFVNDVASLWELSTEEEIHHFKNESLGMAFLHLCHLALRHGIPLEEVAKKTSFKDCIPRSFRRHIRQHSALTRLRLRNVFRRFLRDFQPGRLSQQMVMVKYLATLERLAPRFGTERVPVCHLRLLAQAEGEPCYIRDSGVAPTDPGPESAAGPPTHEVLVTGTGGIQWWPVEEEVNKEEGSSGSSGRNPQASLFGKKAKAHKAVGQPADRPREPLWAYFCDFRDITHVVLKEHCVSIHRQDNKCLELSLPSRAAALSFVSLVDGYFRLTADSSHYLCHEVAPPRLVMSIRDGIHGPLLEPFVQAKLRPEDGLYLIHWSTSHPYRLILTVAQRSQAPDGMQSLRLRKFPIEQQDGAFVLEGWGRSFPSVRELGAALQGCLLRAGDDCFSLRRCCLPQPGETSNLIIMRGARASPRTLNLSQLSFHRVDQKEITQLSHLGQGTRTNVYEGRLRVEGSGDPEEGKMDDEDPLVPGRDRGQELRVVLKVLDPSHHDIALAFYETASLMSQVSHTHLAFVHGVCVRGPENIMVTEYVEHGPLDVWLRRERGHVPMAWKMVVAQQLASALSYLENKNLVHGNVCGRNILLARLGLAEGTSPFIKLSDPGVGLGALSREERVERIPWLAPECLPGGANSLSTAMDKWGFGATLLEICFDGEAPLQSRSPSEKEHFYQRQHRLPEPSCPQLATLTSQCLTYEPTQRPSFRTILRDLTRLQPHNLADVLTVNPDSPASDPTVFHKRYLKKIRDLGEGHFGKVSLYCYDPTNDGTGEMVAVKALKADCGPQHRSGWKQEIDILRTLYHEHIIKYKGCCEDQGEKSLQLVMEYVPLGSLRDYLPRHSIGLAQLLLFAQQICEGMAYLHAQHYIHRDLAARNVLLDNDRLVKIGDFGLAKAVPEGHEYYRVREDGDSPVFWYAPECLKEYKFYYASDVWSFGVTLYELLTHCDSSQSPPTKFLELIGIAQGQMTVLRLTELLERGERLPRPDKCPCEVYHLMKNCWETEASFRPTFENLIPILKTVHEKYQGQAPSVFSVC
Outline: as §1

[1] = test system: IL-2 stimulated pSTAT5 in Tall-1 T cells; assay: Cellular JAK3 potency assay: inhibition of IL-2 stimulated pSTAT5 in Tall-1 T cells; type: cell-based, human; conditions: IL-2 stimulated pSTAT5, Tall-1 T cells
Outline: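 Inhibition of IL-2-induced pSTAT5 was quantified by AlphaLisa in Tall-1 cell lysates. Compound exposure lasted 1 h before 30 min stimulation with 300 ng/ml IL-2 final.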

JAK3 = molecular target: T4, JAK3 (Homo sapiens, UniProt P52333); assay: Biochemical JAK3 kinase assay (LanthaScreen); parameters: GST; purchased Life Technologies; conditions: for JAK3 (pKi)-JAK1 (pKi): selectivity JAK3 over JAK1, difference of pKi
T4 sequence (P52333 1-1124): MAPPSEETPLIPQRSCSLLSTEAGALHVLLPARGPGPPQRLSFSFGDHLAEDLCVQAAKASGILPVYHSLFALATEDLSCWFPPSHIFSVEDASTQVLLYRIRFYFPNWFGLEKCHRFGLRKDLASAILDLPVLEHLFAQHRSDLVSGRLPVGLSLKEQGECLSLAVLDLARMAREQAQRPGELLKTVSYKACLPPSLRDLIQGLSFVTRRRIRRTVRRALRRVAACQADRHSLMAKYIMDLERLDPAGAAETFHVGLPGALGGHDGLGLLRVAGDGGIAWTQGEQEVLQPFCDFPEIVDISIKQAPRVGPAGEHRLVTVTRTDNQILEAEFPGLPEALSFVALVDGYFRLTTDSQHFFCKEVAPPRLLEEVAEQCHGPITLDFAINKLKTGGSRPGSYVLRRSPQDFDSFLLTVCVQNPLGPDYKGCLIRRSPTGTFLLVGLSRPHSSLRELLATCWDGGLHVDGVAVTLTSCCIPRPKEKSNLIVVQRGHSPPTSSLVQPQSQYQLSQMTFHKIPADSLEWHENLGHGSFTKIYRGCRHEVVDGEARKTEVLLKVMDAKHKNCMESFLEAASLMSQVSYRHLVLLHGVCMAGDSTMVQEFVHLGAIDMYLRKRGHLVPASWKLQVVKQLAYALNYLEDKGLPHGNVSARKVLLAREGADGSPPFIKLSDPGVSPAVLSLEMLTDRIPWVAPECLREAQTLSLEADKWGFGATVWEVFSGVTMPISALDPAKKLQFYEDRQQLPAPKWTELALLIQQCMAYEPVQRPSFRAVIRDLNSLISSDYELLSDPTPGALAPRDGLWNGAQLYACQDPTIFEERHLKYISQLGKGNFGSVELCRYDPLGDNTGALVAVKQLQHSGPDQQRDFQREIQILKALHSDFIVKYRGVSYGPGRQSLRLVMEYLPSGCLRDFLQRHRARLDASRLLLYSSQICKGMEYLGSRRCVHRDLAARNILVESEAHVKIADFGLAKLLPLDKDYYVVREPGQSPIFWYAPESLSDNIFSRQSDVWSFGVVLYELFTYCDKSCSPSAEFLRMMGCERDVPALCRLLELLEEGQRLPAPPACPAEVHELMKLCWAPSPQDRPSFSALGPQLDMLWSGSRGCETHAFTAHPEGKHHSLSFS
Outline: as §1

T1 sequence (P23458 whole entry): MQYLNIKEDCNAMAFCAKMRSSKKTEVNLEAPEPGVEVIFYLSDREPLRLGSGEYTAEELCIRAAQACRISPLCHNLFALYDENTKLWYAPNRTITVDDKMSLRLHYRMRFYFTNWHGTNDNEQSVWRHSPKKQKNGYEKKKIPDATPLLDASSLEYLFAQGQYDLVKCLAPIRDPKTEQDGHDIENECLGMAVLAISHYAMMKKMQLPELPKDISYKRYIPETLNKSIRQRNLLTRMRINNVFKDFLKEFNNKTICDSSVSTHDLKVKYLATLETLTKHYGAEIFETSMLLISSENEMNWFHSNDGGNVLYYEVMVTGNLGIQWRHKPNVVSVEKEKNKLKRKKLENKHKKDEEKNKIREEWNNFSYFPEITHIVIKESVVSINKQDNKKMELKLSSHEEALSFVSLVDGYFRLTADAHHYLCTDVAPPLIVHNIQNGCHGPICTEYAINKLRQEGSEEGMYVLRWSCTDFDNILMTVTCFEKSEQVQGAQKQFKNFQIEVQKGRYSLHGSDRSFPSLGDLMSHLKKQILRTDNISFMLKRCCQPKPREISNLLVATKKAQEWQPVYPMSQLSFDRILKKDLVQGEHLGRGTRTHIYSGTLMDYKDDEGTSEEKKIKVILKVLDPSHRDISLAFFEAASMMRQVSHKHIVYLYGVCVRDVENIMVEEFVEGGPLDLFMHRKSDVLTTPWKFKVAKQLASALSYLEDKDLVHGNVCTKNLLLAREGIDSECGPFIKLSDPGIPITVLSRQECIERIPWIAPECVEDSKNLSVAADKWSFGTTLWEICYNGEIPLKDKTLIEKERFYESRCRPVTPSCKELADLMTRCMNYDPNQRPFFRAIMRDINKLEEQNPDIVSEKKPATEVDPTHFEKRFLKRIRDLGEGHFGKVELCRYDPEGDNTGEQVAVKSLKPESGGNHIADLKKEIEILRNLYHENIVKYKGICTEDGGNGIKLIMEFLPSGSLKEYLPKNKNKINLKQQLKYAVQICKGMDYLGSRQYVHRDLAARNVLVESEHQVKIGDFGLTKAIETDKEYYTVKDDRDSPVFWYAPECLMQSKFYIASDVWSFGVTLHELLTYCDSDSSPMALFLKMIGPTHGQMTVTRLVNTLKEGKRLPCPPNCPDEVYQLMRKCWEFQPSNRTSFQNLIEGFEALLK

| SMILES | JAK 1 (pKi) (JAK1) | JAK 2 (pKi) (JAK2) | Tyk 2 (pKi) (Tyk2) | Tall-1 (pIC50) [1] | JAK 3 (pKi) (JAK3) | JAK3 (pKi)-JAK1 (pKi) (JAK3) |
| --- | --- | --- | --- | --- | --- | --- |
| C=CC(=O)N1CCC(COc2nc(-c3ccc(O)cc3)nc3[nH]ncc23)CC1 [Compound 14-12] | E (a pKi value of 7 or below (Ki of 100 nM or above)) | E (a pKi value of 7 or below (Ki of 100 nM or above)) | E (a pKi value of 7 or below (Ki of 100 nM or above)) | C (a pIC50 value between 6 and 6.7 (IC50 between 1 μM and 200 nM)) | B (a pKi value between 9 and 10 (Ki between 1 nM and 0.1 nM)) | A (a value of 3 or above) |
| C=CC(=O)N1CC2(CC(Oc3cc(-c4ccc(O)c(F)c4)cc4[nH]ncc34)C2)C1 [Compound 15-2] | D (a pKi value between 7 and 8 (Ki between 100 nM and 10 nM)) | D (a pKi value between 7 and 8 (Ki between 100 nM and 10 nM)) | E (a pKi value of 7 or below (Ki of 100 nM or above)) | A (a pIC50 value≥7.5 (IC50≤32 nM)) | A (a pKi value≥10 (Ki≤0.1 nM)) | B (a value of 2.3 to 3) |
| CN(C)C/C=C/C(=O)N1CC2(CC(Oc3cc(-c4ccc(O)c(F)c4)cc4[nH]ncc34)C2)C1 [Compound 15-5] | D (a pKi value between 7 and 8 (Ki between 100 nM and 10 nM)) | D (a pKi value between 7 and 8 (Ki between 100 nM and 10 nM)) | E (a pKi value of 7 or below (Ki of 100 nM or above)) | B (a pIC50 value between 6.7 (included) and 7.5 (IC50 between 200 nM and 32 nM)) | B (a pKi value between 9 and 10 (Ki between 1 nM and 0.1 nM)) | B (a value of 2.3 to 3) |
| C=CC(=O)N1CC2(CC(Oc3nc(-c4ccc(O)cc4)cc4[nH]ncc34)C2)C1 [Compound 15-7] | E (a pKi value of 7 or below (Ki of 100 nM or above)) | D (a pKi value between 7 and 8 (Ki between 100 nM and 10 nM)) | E (a pKi value of 7 or below (Ki of 100 nM or above)) | A (a pIC50 value≥7.5 (IC50≤32 nM)) | B (a pKi value between 9 and 10 (Ki between 1 nM and 0.1 nM)) | B (a value of 2.3 to 3) |
| C=CC(=O)N1CC2(CC(Oc3nc(-c4ccc(O)c(Cl)c4)nc4[nH]ncc34)C2)C1 [Compound 15-9] | E (a pKi value of 7 or below (Ki of 100 nM or above)) | E (a pKi value of 7 or below (Ki of 100 nM or above)) | E (a pKi value of 7 or below (Ki of 100 nM or above)) | B (a pIC50 value between 6.7 (included) and 7.5 (IC50 between 200 nM and 32 nM)) | A (a pKi value≥10 (Ki≤0.1 nM)) | A (a value of 3 or above) |
| C=CC(=O)N1CC2(CC(Oc3nc(-c4ccc(O)c(F)c4)nc4[nH]ncc34)C2)C1 [Compound 15-10] | E (a pKi value of 7 or below (Ki of 100 nM or above)) | E (a pKi value of 7 or below (Ki of 100 nM or above)) | E (a pKi value of 7 or below (Ki of 100 nM or above)) | A (a pIC50 value≥7.5 (IC50≤32 nM)) | A (a pKi value≥10 (Ki≤0.1 nM)) | A (a value of 3 or above) |
| CN(C)C/C=C/C(=O)N1CC(OCc2cc(-c3ccc(O)c(Cl)c3)cc3[nH]ncc23)C1 [Compound 16-1] | E (a pKi value of 7 or below (Ki of 100 nM or above)) | E (a pKi value of 7 or below (Ki of 100 nM or above)) | E (a pKi value of 7 or below (Ki of 100 nM or above)) | B (a pIC50 value between 6.7 (included) and 7.5 (IC50 between 200 nM and 32 nM)) | A (a pKi value≥10 (Ki≤0.1 nM)) | A (a value of 3 or above) |

From patent publication US10392368B2, “Pyrazolo and triazolo bicyclic compounds as JAK kinase inhibitors” (THERAVANCE BIOPHARMA R&D IP, LLC, priority 2017, dated 2019)
